{"source": "paper PMC9699400", "about": "(Molecules, 2022)", "key": {"[1]": {"test_system": "AChE", "details": "cited from earlier work"}, "[2]": {"target": "T1, AChE (Electrophorus electricus, UniProt O42275)", "T1 construct": "purchased Sigma-Aldrich Co. (St. Louis, MO, USA)", "T1 sequence (O42275 24-633)": "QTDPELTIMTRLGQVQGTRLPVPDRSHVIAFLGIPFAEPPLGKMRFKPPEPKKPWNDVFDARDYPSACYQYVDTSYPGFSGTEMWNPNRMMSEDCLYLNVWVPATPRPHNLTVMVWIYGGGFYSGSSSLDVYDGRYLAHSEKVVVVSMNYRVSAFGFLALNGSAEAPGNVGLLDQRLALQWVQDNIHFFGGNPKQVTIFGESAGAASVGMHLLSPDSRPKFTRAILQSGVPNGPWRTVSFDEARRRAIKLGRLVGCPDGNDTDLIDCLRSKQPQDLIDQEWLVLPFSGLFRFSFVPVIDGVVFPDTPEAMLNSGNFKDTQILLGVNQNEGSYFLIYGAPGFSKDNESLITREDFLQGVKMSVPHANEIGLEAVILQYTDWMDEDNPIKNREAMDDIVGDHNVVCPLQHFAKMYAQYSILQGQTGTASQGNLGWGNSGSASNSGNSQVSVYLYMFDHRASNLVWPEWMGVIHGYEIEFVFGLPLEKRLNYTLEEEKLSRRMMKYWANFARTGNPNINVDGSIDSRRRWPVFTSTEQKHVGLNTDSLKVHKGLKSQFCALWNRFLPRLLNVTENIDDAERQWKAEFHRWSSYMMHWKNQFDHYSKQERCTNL", "assay": "Inhibitory type kinetics analysis (reversibility plots, Lineweaver-Burk)", "assay_type": "biochemical", "procedure": "The type of inhibition was determined using the Lineweaver-Burk plot in double reciprocal form."}, "[3]": {"target": "T1, AChE", "assay": "Time-course inactivation kinetics of AChE", "assay_type": "biochemical", "details": "for Transition Free Energy Change ΔΔG°: ΔΔG° = −RTlnk", "procedure": "We determined enzyme activities at diverse contents every 3 min for 0–30 min and every 5 min for 30–70 min."}, "[4]": {"target": "T1, AChE", "assay": "Fluorescence quenching of AChE", "assay_type": "binding", "procedure": "After each drop, the solution was mixed and left for 3 min to balance the solution. The fluorescence emission spectra at 290 to 450 nm were scanned at an excitation wavelength of 280 nm, with emission and excitation slot widths of 2.5 nm."}, "[5]": {"target": "T1, AChE", "assay": "CD spectra, secondary structure of AChE", "description": "The MOS 450 CD spectrometer (Bio-Logic, Claix, France) was used to measure the CD spectra for AChE solution at 190 to 250 nm under ambient temperature. […] The method to analyze the content of specific secondary structures has been reported in our previous study."}, "[6]": {"test_system": "PC12 cells", "assay": "Quercetin-induced toxicity in PC12 cells (MTT)", "details": "1–80 µM, 24 h, n = 6", "procedure": "(§1) PC12 cells were procured from Nanjing KeyGen Biotech Co. Ltd. (Nanjing, China). The cells were maintained in high-glucose DMEM containing 10% fetal bovine serum (FBS) and 1% P-S and incubated under 5% CO2 and 37 °C. PC12 cells in the logarithmic phase were seeded in 96-well (approximately 2 × 10^4/well) or 24-well (approximately 1 × 10^5/well) culture plates, incubated for 24 h, followed by the replacement of the medium."}, "[7]": {"test_system": "Aβ25–35-induced PC12 cells", "assay": "Aβ25–35-induced PC12 cell viability (MTT)", "details": "then 20 µM Aβ25–35 24 h, model group 51.43 ± 2.61", "procedure": "as §1\n(§2) Each group was provided with six duplicate wells based on different measurement indexes.\nPC12 cells were inoculated in 96-well plates for 24 h."}, "[8]": {"test_system": "Aβ25–35-induced PC12 cells", "assay": "MDA content in Aβ25–35-induced PC12 cells", "assay_type": "cell-based", "details": "quercetin pretreatment (1–40 µM), 20 µM Aβ25–35 24 h; p < 0.01 relative to the model group", "procedure": "as §2\n(§3) For cell culture and grouping sample addition, please refer to Section 2.9. After incubation, the culture plate was centrifuged at 200× g for 5 min using a plate centrifuge, and the supernatant was discarded. Next, the cells were collected and broken by ultrasound and centrifuged at 3000 r/min at 4 °C for l0 min, and the supernatant was collected for subsequent assays. The OD was recorded at 532 and 405 nm, respectively, following the instructions mentioned in the manual for the MDA and GSH kits. Intracellular MDA content and GSH levels are expressed as percentages of the control."}, "[9]": {"test_system": "Aβ25–35-induced PC12 cells", "assay": "GSH level in Aβ25–35-induced PC12 cells", "assay_type": "cell-based", "procedure": "as §2, §3"}, "[10]": {"test_system": "PC12 cells", "details": "10 µM; ref 54 (Liu et al.); cited from earlier work"}, "[11]": {"details": "molar ratio quercetin:AChE 10:1"}}, "note": "Several values for one entry are separate records, joined by “and”; a condition that tells them apart may be missing. Equal entries are not always repeated. Structures can show the parent of a compound that is named as a salt. Where two headings read alike, the source gives them in different places. Marks after values point to notes of the source that are not given here."}
{"smiles": "C[C@@H]1O[C@@H](Oc2c(-c3ccc(O)c(O)c3)oc3cc(O)cc(O)c3c2=O)[C@H](O)[C@H](O)[C@H]1O", "note": "[quercitrin, reference compound]", "values": [{"measurement": "IC50", "setting": "[1]; no reference at the value itself", "value": 94.5, "unit": "µM"}]}
{"smiles": "O=c1c(O)c(-c2ccc(O)c(O)c2)oc2cc(O)cc(O)c12", "note": "[quercetin, 3,3′,4′,5,7-pentahydroxyflavone]", "values": [{"measurement": "type of inhibition", "setting": "[2]; Lineweaver–Burk, c(AChE) = 0.57 nM, quercetin 0–12.0 µM", "value": "mixed inhibitory type"}, {"measurement": "reversibility of inhibition", "setting": "[2]; plots of v versus [AChE], c(ATCI) = 0.25 mM, quercetin 0–8.0 µM", "value": "reversible inhibitor"}, {"measurement": "αKi (binding to AChE–ATCI complex)", "setting": "[2]; secondary plot of Lineweaver–Burk y-intercepts", "value": "19.53 ± 0.65", "unit": "µM"}, {"measurement": "Inactivation Rate Constant k", "setting": "[3]; quercetin 1.5 µM", "value": "4.18 ± 0.06 ×10^−4 s^−1 and 4.18 ± 0.06 ^d ×10^−4 s^−1"}, {"measurement": "Transition Free Energy Change ΔΔG°", "setting": "[3]; quercetin 1.5 µM", "value": "[…]"}, {"measurement": "Inactivation Rate Constant k", "setting": "[3]; quercetin 3.0 µM", "value": "5.73 ± 0.03 ^c ×10^−4 s^−1"}, {"measurement": "Transition Free Energy Change ΔΔG°", "setting": "[3]; quercetin 3.0 µM", "value": "[…]"}, {"measurement": "Inactivation Rate Constant k", "setting": "[3]; quercetin 6.0 µM", "value": "6.04 ± 0.08 ^b ×10^−4 s^−1"}, {"measurement": "Transition Free Energy Change ΔΔG°", "setting": "[3]; quercetin 6.0 µM", "value": "[…]"}, {"measurement": "Inactivation Rate Constant k", "setting": "[3]; quercetin 15.0 µM", "value": "6.41 ± 0.05 ×10^−4 s^−1 and 6.41 ± 0.05 ^a ×10^−4 s^−1"}, {"measurement": "Transition Free Energy Change ΔΔG°", "setting": "[3]; quercetin 15.0 µM", "value": "[…]"}, {"measurement": "bimolecular quenching rate constant Kq, magnitude order", "setting": "[4]; 25, 31 and 37 °C", "value": "~10^12 L mol^−1 s^−1"}, {"measurement": "Gibbs free energy ∆G°", "setting": "[4]; 25 °C", "value": "-27.09 ± 0.03", "unit": "kJ/mol"}, {"measurement": "binding site quantity n", "setting": "[4]; 25 °C", "value": "0.75 ± 0.04"}, {"measurement": "quenching constant KSV", "setting": "[4]; 25 °C, pH 7.6", "value": "6.21 ± 0.08 ^a ×10^4 L mol^−1"}, {"measurement": "Gibbs free energy ∆G°", "setting": "[4]; 31 °C", "value": "-26.37 ± 0.05", "unit": "kJ/mol"}, {"measurement": "binding site quantity n", "setting": "[4]; 31 °C", "value": "0.69 ± 0.01"}, {"measurement": "quenching constant KSV", "setting": "[4]; 31 °C", "value": "4.81 ± 0.06 ^b ×10^4 L mol^−1"}, {"measurement": "Gibbs free energy ∆G°", "setting": "[4]; 37 °C", "value": "-25.64 ± 0.07", "unit": "kJ/mol"}, {"measurement": "binding site quantity n", "setting": "[4]; 37 °C", "value": "0.67 ± 0.03"}, {"measurement": "quenching constant KSV", "setting": "[4]; 37 °C", "value": "3.33 ± 0.05 ^c ×10^4 L mol^−1"}, {"measurement": "enthalpy change ∆H°", "setting": "[4]; van't Hoff equation, 25–37 °C", "value": "-63.39 ± 0.07", "unit": "kJ/mol"}, {"measurement": "entropy change ∆S°", "setting": "[4]; van't Hoff equation, 25–37 °C", "value": "-121.8 ± 0.06", "unit": "J mol^−1 K^−1"}, {"measurement": "β-Sheet of AChE", "setting": "[5]; molar ratio quercetin:AChE 2:1, free AChE 18.62 ± 0.06", "value": "17.31 ± 0.09 ^b %"}, {"measurement": "β-Turn of AChE", "setting": "[5]; molar ratio quercetin:AChE 2:1, free AChE 19.18 ± 0.28", "value": "20.15 ± 0.24 ^c %"}, {"measurement": "Random Coil of AChE", "setting": "[5]; molar ratio quercetin:AChE 2:1, free AChE 28.02 ± 0.65", "value": "25.41 ± 0.34 ^b %"}, {"measurement": "α-Helix of AChE", "setting": "[5]; molar ratio quercetin:AChE 2:1, free AChE 34.35 ± 0.74", "value": "37.13 ± 0.16 ^c %"}, {"measurement": "Random Coil of AChE", "setting": "[5]; molar ratio quercetin:AChE 6:1", "value": "23.71± 0.28 ^c %"}, {"measurement": "β-Sheet of AChE", "setting": "[5]; molar ratio quercetin:AChE 6:1", "value": "16.20 ± 0.17 ^c %"}, {"measurement": "β-Turn of AChE", "setting": "[5]; molar ratio quercetin:AChE 6:1", "value": "21.62 ± 0.13 ^b %"}, {"measurement": "Random Coil of AChE", "setting": "[5]; [11]", "value": "20.19% and 20.19 ± 0.37 ^d %"}, {"measurement": "α-Helix of AChE", "setting": "[5]; [11]", "value": "41.51% and 41.51 ± 0.28 ^a %"}, {"measurement": "β-Sheet of AChE", "setting": "[5]; [11]", "value": "15.16% and 15.16 ± 0.14 ^d %"}, {"measurement": "β-Turn of AChE", "setting": "[5]; [11]", "value": "23.14% and 23.14 ± 0.32 ^a %"}, {"measurement": "cytotoxicity (cell viability, MTT)", "setting": "[6]", "value": "no toxic effect"}, {"measurement": "cell viability, % of the control group", "setting": "[7]; pretreatment 1 µM", "value": "56.06 ± 3.82", "unit": "%"}, {"measurement": "cell viability, % of the control group", "setting": "[7]; pretreatment 10 µM", "value": "62.14 ± 2.79", "unit": "%"}, {"measurement": "cell viability, % of the control group", "setting": "[7]; pretreatment 20 µM", "value": "68.58 ± 2.12", "unit": "%"}, {"measurement": "cell viability, % of the control group", "setting": "[7]; pretreatment 40 µM", "value": "78.61 ± 3.26", "unit": "%"}, {"measurement": "cell viability, % of the control group", "setting": "[7]; pretreatment 80 µM", "value": "79.48 ± 4.32", "unit": "%"}, {"measurement": "release of MDA", "setting": "[8]", "value": "inhibited"}, {"measurement": "GSH levels versus model group", "setting": "[9]; 1 µM pretreatment, p > 0.05", "value": "no statistical difference"}, {"measurement": "intracellular GSH levels versus model group", "setting": "[9]; 10, 20, and 40 µM pretreatment, dose-dependent", "value": "increased"}, {"measurement": "IC50", "setting": "[1]; reported by Jung", "value": "[…]"}, {"measurement": "IC50", "setting": "[1]; reported by Khan", "value": "[…]"}]}
{"smiles": "O=C1c2c(O)cc(O)cc2OC(c2ccc(O)c(O)c2)C1O", "note": "(stereo not drawn) [taxifolin, reference compound]", "values": [{"measurement": "IC50", "setting": "[1]", "value": "54 ± 1.58", "unit": "µM"}]}
{"smiles": "COc1ccc2c3c1O[C@H]1C[C@@H](O)C=C[C@@]31CCN(C)C2", "note": "[galantamine hydrobromide]", "values": [{"measurement": "protection of cells against Aβ25–35 neurotoxicity", "setting": "[10]", "value": "significantly protected"}]}
